Experimental data as given in US7763426B2, “Probes and methods for detection of Escheridia coli and antibiotic resistance” (priority 2004, dated 2010).
{Fluorescein} = fluorescein label (binding site for anti-fluorescein Fab-HRP); {Biotin} = biotin (capture probe anchor)

What was measured:
E. coli 16S rRNA = assay: Amperometric detection of bacterial 16S rRNA, 65° C. hybridization (Examples 2, 3); assay type: binding, Escherichia coli; conditions: for sensitivity of electrochemical sensor assay (cells detected): five-fold serial dilutions of E. coli cells, capture probe EC434C, 5′-fluorescein 6 nt gap vs 3′-fluorescein 0 nt gap
[1] = Double-labeled Test Probes on the electrochemical sensor (no hybridization)
Method: FIG. 7. The effect of oligonucleotide length on electrochemical signal intensity. Single stranded oligonucleotides (‘Test Probes’) ranging from 20-60 bps in length modified at the 5′- and 3′-ends with biotin and fluorescein, respectively, were tested to examine the effect of probe length on signal intensity. Hybridization was not required in these experiments because, as shown in the inset, the double-labeled probes served as a bridge between fluorescein and biotin on the electrochemical sensor surface. The highest signal output was obtained using the 40 bp probe, yielding a lower limit of detection at a concentration of 10 pM. Background current output was measured using negative control (NC) sensors to which no cell lysates were applied.
Sensor characterization and surface functional layer preparation. Microfabricated electrochemical sensor arrays with an alkanethiolate self-assembled monolayer (SAM) were obtained from GeneFluidics (Monterey Park, Calif.). […]
Amperometric Detection of bacterial 16S rRNA. […] Amperometric current vs. time was measured using a multichannel potentiostat (GeneFluidics). The voltage was fixed at −200 mV (vs. reference), and the electroreduction current was measured at 60 sec after the HRP redox reaction reached steady state. All samples were analyzed in duplicate. […] Positive signals are determined by comparing the signals with the background using paired T test. […]

Enterococcus 16S rRNA = assay: Amperometric detection of bacterial 16S rRNA, 65° C. hybridization (Examples 2, 3); assay type: binding, Enterococcus faecalis; conditions: for sensitivity of electrochemical sensor assay (cells detected): five-fold serial dilutions of enterococcal cells, capture probe EF207C, EF165D 5′-fluorescein, EF171D 3′-fluorescein
[2] = 3′-fluorescein and continuity of hybridization sites vs 5′-fluorescein with gap

Row | Sequence | sensitivity of electrochemical sensor assay (cells detected) (E. coli 16S rRNA) | sensitivity of electrochemical sensor assay (cells detected) (Enterococcus 16S rRNA) | also measured
1 | CTGAAAGTACTTTACAACCCGAAGGCCTTCTTCAT (DNA CTGAAAGTACTTTACAACCCGAAGGCCTTCTTCAT; DNA, backbone and methylation of C not given here; listed as Escherichia coli) [EC393D] | 6,200 cells | – | –
2 | TCCCCGCTGAAAGTACTTTACAACCCGAAGGCCTT (DNA TCCCCGCTGAAAGTACTTTACAACCCGAAGGCCTT; sugars by position and backbone not given here; further chemistry not fully specified; listed as Escherichia coli) [EC399D] | 260 cells | – | improvement in sensitivity (E. coli 16S rRNA; [2]): 24-25 fold
3 | CGTCAATGAGCAAAGGTATTACTCCCTTCCTCCCCGCTGA (DNA CGTCAATGAGCAAAGGTATTACTCCCTTCCTCCCCGCTGA; DNA, 5' {Biotin}, 3' {Fluorescein}, backbone and methylation of C not given here) [40-mer] | – | – | lower limit of detection ([1]; 5′-biotin, 3′-fluorescein Test Probe): 10 pM; signal relative to 20mer and 60mer Test Probes ([1]; across a range of concentrations): higher signals
4 | GTCCATCCATCAGCGACACCCGAAAGCGCCTTTCA (DNA GTCCATCCATCAGCGACACCCGAAAGCGCCTTTCA; sugars by position and backbone not given here; listed as Enterococcus sp.) [EF165D] | – | 232,000 cells | –
5 | CCGCGGGTCCATCCATCAGCGACACCCGAAAGCGC (DNA CCGCGGGTCCATCCATCAGCGACACCCGAAAGCGC; sugars by position and backbone not given here; further chemistry not fully specified; listed as Enterococcus sp.) [EF171D] | – | 9,400 cells | improvement in sensitivity (Enterococcus 16S rRNA; [2]): 24-25 fold
